According to patent US10010513B2, “Aqueous pharmaceutical composition containing a biologic therapeutic agent and guanidine or a guanidine derivative and an injection including the composition” (Novartis AG, priority 2012, dated 2018):

Experiments:
[1] = Viscosity of the formulations; assay type: physicochemical; details: Table 5 summary; 150 mM excipient, IgG1/lambda monoclonal antibody
Description: Unless otherwise specifically stated, viscosity of any composition discussed herein is determined at a temperature of 20° C. and a shear rate of 1029 s^−1 with a cone spindle of geometry 0.50°/40 mm.

[2] = system: New Zealand White rabbit; experiment: Toxicity of Arginine-containing formulation buffer following intravitreal administration; assay type: in vivo
Description: A study was performed to determine the toxicity of an Arginine-containing formulation buffer following intravitreal administration to the New Zealand White rabbit for 4 weeks. Three buffers in 50 μl volumes and varying in concentrations of Arginine were injected intravitreally on a weekly basis for 3 weeks (i.e., three doses) and evaluated for toxicity. The three buffers were as follows: (1) 10 mM Histidine, 170 mM, Trehalose, 0.01% polysorbate 20, pH 5.5; (2) 50 mM Arginine, 10 mM, Histidine, 120 mM Trehalose, 0.01% polysorbate 20, pH 5.5; and (3) 150 mM Arginine, 10 mM Histidine, 0.01% polysorbate).

## N=C(N)N [guanidine]
[1]
  Reduction of the viscosity of the biologic relative to trehalose, urea and taurin: far superior in reducing the viscosity

## N=C(N)NCCC[C@H](N)C(=O)O [arginine]
[1]
  Reduction of the viscosity of the biologic relative to trehalose, urea and taurin: far superior in reducing the viscosity
[2]; higher concentrations, about 150 mM
  Damage to photoreceptor cells of the eye: have shown damage to photoreceptor cells
[2]; lower concentrations of arginine
  Damage to photoreceptor cells of the eye: do not cause damage to photoreceptor cells
